Laboratory results reported in US7049321B2, “Methods and pharmaceutical compositions for treatment of central and peripheral nervous system disorders and compounds useful therefor” (Israel Institute for Biological Research, priority 2002, dated 2006).
Changes are numbered by the printed parent chain.

How the values were obtained:
naive rats = experiment: Social memory (olfactory recognition) in naive rats; format: in vivo, Wistar rats; conditions: 0.5, 1 and 5 mg/kg, p.o.
Description: 12 Male Wistar rats, 400–530 gr (4–5 months old) were used. Rats were housed individually 14 days before testing. Juvenile Wistar rats 40–50 gr (at arrival) were kept in groups of 6 and served as social stimuli for the adult rats. Animals were kept at 21° C.±1, with an inverse light-dark cycle (light on from 2:00 P.M. to 2:00 A.M.). The sessions were conducted 7 hr into the dark part of the light/dark cycle, under red illumination.
Adult rats were placed in a dim illumination room 1.5 h before the beginning of the social test. All juveniles were isolated in cages for 30 min prior to the beginning of the experiment. At the beginning of testing, an unfamiliar juvenile rat was placed in the home cage of an adult rat for 5 min. The time spent by the adult rat in investigating the juvenile rat was recorded. The adult rat was then immediately (1–2 min) treated with vehicle or test compound. Two hours later, the same juvenile was presented to the same adult rat for another 5 min period, a time when normally the stimulus juvenile is no longer identified (i.e., the adult rat investigates the juvenile for the same amount of time as during the first presentation). […]
Time spent in social investigation of stimulus juvenile rat was measured (in sec) and then expressed for each animal as the ratio of the second exposure to the first exposure (Ratio of Investigation Duration (RID)). […]

M1 receptors = target: T1, M1 receptors (Rattus norvegicus, UniProt P08482); experiment: [3H]PZ competition binding to rat cortical membranes; conditions: for Ki: rat cortex
T1 construct: from tissue; host or cells: rat cortical membranes
T1 sequence (P08482 1-460): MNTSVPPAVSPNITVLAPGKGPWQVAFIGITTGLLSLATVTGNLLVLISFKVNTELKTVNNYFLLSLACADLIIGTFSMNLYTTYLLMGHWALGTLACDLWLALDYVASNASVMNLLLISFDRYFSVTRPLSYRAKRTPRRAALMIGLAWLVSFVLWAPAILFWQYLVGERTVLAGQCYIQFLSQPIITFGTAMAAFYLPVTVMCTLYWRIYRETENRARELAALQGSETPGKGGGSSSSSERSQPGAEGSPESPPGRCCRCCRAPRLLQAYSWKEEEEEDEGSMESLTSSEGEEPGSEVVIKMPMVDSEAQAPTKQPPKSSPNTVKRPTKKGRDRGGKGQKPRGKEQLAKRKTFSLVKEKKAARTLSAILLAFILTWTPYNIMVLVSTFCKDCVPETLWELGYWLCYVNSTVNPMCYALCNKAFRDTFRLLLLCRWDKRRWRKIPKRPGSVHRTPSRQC
From the text: Pirenzepine (PZ), a muscarinic antagonist, binds preferentially to M1 receptors while OXO-M binds to all mAChR subtypes non-selectively; the ratio between the Ki values for PZ versus that of OXO-M may be indicative of the selectivity of the tested compound. The smaller the ratio, the more M1 selective is the tested compound. […] The OXO-M/PZ ratio is ˜0.36 showing a moderately high selectivity for the M1 receptor.

rat M1 mAChR = target: T2, rat M1 mAChR (Rattus norvegicus, UniProt P08482); experiment: PI turnover, rat M1 mAChR; format: cell-based
T2 construct: expressed in transfected cells; host or cells: probably the rat pheochromocytoma cells transfected with M1 mAChR

aged rats = experiment: Morris water maze in aged rats; format: in vivo, Sprague-Dawley rats; conditions: for Reversal learning: AF267B 1 mg/kg, AF292 1 and 0.5 mg/kg, po
From the text: Old (22–24 months old) and young (three months old) Sprague-Dawley rats had been tested in the MWM.

[1] = Metabolic stability, rat liver microsomes; format: in vitro ADME; conditions: read-out: Metabolic Stability T1/2
Description: (§1) The metabolic stability of AF292 was evaluated by monitoring its disappearance while incubated with rat, […], monkey, and human hepatic microsomes. Testosterone, and propranolol were run as assay controls.

[2] = Metabolic stability, human liver microsomes; format: in vitro ADME; conditions: read-out: Metabolic Stability T1/2
Description: as §1

[3] = target: Human serum albumin (HSA) (Homo sapiens, UniProt P02768); experiment: Protein binding, human serum albumin; format: in vitro ADME; conditions: 10 μM
Chain of Human serum albumin (HSA) (P02768 25-609): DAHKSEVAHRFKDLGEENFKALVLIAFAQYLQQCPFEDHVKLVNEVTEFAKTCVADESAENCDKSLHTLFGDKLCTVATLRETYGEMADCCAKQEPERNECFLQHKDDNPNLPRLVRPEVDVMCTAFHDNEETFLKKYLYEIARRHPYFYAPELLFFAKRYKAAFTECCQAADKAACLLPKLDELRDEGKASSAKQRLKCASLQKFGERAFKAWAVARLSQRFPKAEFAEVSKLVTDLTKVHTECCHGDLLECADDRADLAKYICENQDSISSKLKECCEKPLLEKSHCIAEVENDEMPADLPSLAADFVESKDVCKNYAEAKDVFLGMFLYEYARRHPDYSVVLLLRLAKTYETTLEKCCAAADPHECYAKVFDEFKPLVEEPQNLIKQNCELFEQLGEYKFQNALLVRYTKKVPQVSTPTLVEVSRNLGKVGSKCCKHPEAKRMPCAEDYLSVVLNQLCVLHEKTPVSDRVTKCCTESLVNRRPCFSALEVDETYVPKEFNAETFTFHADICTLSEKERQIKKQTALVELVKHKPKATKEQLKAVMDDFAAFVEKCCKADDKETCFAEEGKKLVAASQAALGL
Description: (§2) Protein binding studies were carried out in human plasma, α1-glycoprotein, human serum albumin (HSA), and Dulbecco's Phosphate Buffered Saline (PBS). AF292 was added to a final concentration of 10 μM. […] (μM) and in human […] (AGP), (see Table 1).

[4] = Protein binding, human plasma; format: in vitro ADME
Description: as §2

[5] = Pharmacokinetic study in dogs; format: in vivo; conditions: beagle, dog, plasma
From the text: The results of the PK profile of AF292 in rats and Beagle dogs (overnight fasting; drug administered in water solution; gavage) are listed in Table 1.

human M1 = target: T3, human M1 (Homo sapiens, UniProt P11229); experiment: PI hydrolysis in cells transfected with human M1; format: cell-based; parameters: expressed in transfected cells
T3 sequence (P11229 1-460): T1 sequence (P08482 1-460) with V5A, S254T, S309P, K320R, G337A, V413I

[6] = oral, Dogs, extrapolated for 5 mg/kg

Compound	Investigation time of the same juvenile (RID) (naive rats)	Ki (M1 receptors) [µM]	PI turnover vs. CCh, rat M1 mAChR (rat M1 mAChR)	Reversal learning (aged rats)	half-life [1] [h]	half-life [2] [h]	Protein Binding [3]	fraction unbound at 10 μM [4]	PI turnover vs. carbachol, M1 (human M1) [%]	further results
CC1=NCC2(CCN(C)CC2)S1 [AF150(S), 2,8-Dimethyl-1-thia-3,8-diaza-spiro[4.5]dec-2-ene]	decreased the investigation time									
CC[C@@H]1SC2(CCN(C)CC2)NC1=O [AF267B, (S)-2-ethyl-8-methyl-1-thia-4,8-diaza-spiro[4.5]decan-3-one]	decreased the investigation time	3.74 ± 0.59	PI, rat M1 mAChR: 75%	improved significantly the reversal learning	1.47	> 1.67	HSA = 32%	0.75	~66	Learning (aged rats; 1 mg/kg): tendency for improvement; Swimming ability (aged rats; rat, in vivo): no significant effect on the swimming ability; AUC(0-inf) [5, 6]: 2.76 µg·h/mL; Cmax [5, 6]: 1.08 µg/mL; AUC(0-inf) ([5]; po, Dogs., 1 mg/kg): 0.552 µg·h/mL; Cmax ([5]; po, Dogs., 1 mg/kg): 0.257 µg/mL; MRT ([5]; po, Dogs., 1 mg/kg): 1.96 h; Tmax ([5]; po, Dogs., 1 mg/kg): 0.58 to 0.75 h; half-life ([5]; po, Dogs., 1 mg/kg): 1.33 h
CC[C@@H]1SC2(CCNCC2)NC1=O [AF292, (S)-2-Ethyl-1-thia-4,8-diaza-spiro[4.5]decan-3-one]		1.64	PI, rat M1 mAChR; 50%	did not reach significance	1.53	> 1.67	Human serum albumin (HSA) = 22%	0.65	~35	OXO-M/PZ ratio (M1 receptors): ~0.36; Probe trial, memory (aged rats; both doses (1 and 0.5 mg/kg, po)): tendency for partial spatial bias; AUC(0-inf) ([5]; po, Dogs, 5 mg/kg): 4.65 µg·h/mL; Cmax ([5]; po, Dogs, 5 mg/kg): 1.19 µg/mL; MRT ([5]; po, Dogs, 5 mg/kg): 4.85 h; Tmax ([5]; po, Dogs, 5 mg/kg): 0.8 h; half-life ([5]; po, Dogs, 5 mg/kg): 2.04 h
